Reference: US12161723B2, “Water-based cannabinoid and opioid compositions” (DAY THREE LABS MAN[…]., priority 2014, dated 2024)

Legend:
[1] = biological target: T1, bovine serum albumin (BSA) (Bos taurus, UniProt P02769); assay: Cannabis smoke bubbled through aqueous BSA solution, cannabinoids determined by HPLC (Example 1a); assay type: binding; conditions: BSA in Hartmann's solution; FIG. 2A
T1 construct: purchased Millipore, USA
Experimental: Protein-bound cannabinoid was formed according to the following method. An aqueous albumin solution was prepared by adding 20 (mg)) of bovine serum albumin (BSA, from Millipore, USA) to 10 milliliters (ml) ml Hartmann's solution (B. Braun Melsungen AG, Germany). BSA was completely dissolved using a shaker (Heidolph POLYMAX 1040) at 50 revolutions per minute.
A cannabis-filled cigarette was formed using a cigarette paper containing 0.8 gr ground cannabis (provided by “Seach” Israel), from flowers and budding leaves. A Pasteur pipette was cut longitudinally at its wide end, and the cigarette was lodged in to the cut end. The narrow end of the pipette was attached to a syringe. The cigarette was lit in a fume hood, and cigarette smoke was collected in the syringe by pulling the syringe plunger. The smoke was then slowly released into the BSA solution by depressing the plunger. Approximately 350 ml of smoke-containing air was gently bubbled through the BSA solution.
As a control, a solution of 10 ml of Hartmann's solution was prepared without the addition of BSA and a similar procedure of cannabis smoke formation and bubbling was performed.
Samples having a volume of 3 ml of the BSA solution and the control solution were each inserted in to HPLC glass vials and the open vials were inserted into a vacuum oven for 24 hours at 37° Celsius.
The solid phase after the evaporation was crushed in to a fine powder using mortar and pestle. The powder was extracted using Methanol chloroform 9:1 extract solution, sonicated for 30 minutes, and was then filtered and added in to an HPLC testing tube.
HPLC was performed using an HP1050 AGILENT, DAD detector, XBridge C18 3.5 μm 4.6×150 mm column, and according to the following parameters: […]

BSA [2] = biological target: T2, BSA (Bos taurus, UniProt P02769); assay: Cannabis smoke/vapor passed through BSA/water/ethanol solution, cannabinoid profile (Example 1d); assay type: binding, bovine; conditions: 33% ethanol, 48 hours incubation, washed
Experimental: (§1) To show which cannabinoid compounds are solubilized in processes using BSA versus organic solvents, cannabis from two different batches was smoked and or vaporized. Vapor was formed using a “volcano” vaporizer at a temperature of 210° C. The smoke/vapor was passed through either a BSA/water/ethanol solution described in example 1b, comprising 33% by volume ethanol or through a pure ethanol (99% ethanol) solution. Solutions were stirred using a magnetic stirrer and were incubated for 48 hours, during which time, most of the ethanol evaporated. One of the batches of cannabis was high in THC, and the other batch of cannabis was high in both THC and CBD.
The BSA/water/ethanol solution was washed after smoke or vapor was combined with it, and the amount of cannabinoids present was analyzed. The results of the comparison of relative concentration of cannabinoids (relative to total cannabinoid content) as expressed in percent (weight/weight), for a strain of cannabis high in THC are shown in the table below.

[3] = Cannabis smoke/vapor passed through pure ethanol, cannabinoid profile (Example 1d); assay type: physicochemical; conditions: for relative concentration of cannabinoids (relative to total cannabinoid content), Vapor passed through ethanol: vapor at 210° C.
Experimental: as §1

bovine γ-globulin = assay: Cannabis vapor streamed through protein solution, cannabinoids adsorbed (Example 1f); assay type: binding; conditions: vapor of cannabis high in CBD; 1 mg/ml protein, ethanol:water 1:2, 30° C., 24 hours
Experimental: (§2) The protein solutions were formed using ethanol and water in a 1:2 ratio. The solutions were incubated at 30° C. for 24 hours.

ovalbumin (hen) = biological target: T3, ovalbumin (hen) (Gallus gallus, UniProt P01012); assay: as above; assay type: binding; conditions: vapor of cannabis high in CBD; 1 mg/ml protein, ethanol:water 1:2, 30° C., 24 hours
T3 sequence (P01012 1-386): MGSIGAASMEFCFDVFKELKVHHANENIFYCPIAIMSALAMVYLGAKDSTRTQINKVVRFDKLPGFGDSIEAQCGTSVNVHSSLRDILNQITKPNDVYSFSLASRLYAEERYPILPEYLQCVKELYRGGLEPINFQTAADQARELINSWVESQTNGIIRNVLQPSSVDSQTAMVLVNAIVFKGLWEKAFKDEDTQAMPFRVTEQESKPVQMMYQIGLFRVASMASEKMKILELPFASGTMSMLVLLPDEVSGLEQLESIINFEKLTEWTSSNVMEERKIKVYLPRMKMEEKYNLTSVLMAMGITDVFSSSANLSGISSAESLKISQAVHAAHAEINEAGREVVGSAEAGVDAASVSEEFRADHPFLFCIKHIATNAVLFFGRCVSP
Experimental: as §2

[4] = biological target: T4, rice recombinant human serum albumin (HSA) (Homo sapiens, UniProt P02768); assay: as above; assay type: binding; conditions: vapor of cannabis high in CBD; 1 mg/ml protein, ethanol:water 1:2, 30° C., 24 hours
T4 construct: host or cells: rice (recombinant expression host)
Experimental: as §2

[5] = Cannabinoid content of cannabis extract (Example 2a); assay type: physicochemical; conditions: methanol/chloroform 9:1 cannabis extract
Experimental: (§3) Cannabis extract was prepared as follows: In short, cannabis plant matter is dried, ground and homogenized to form ground cannabis. The ground cannabis is extracted with methanol/chloroform (volume/volume ratio of 9:1). Sonication and filtration is then performed. Identity of cannabinoids is determined by HPLC by evaporation, dissolution in an appropriate solvent.
(§4) Drying of the cannabis plant matter occurs under high vacuum at about 37±2° C. for about 24 hours and then ground to form a fine powder. 200 mg of ground powder is combined with 10 ml of methanol/chloroform, and sonicated in an ice bath for 30 minutes at maximum power. The supernatant is then filtered through a 0.2 micron filter.
(§5) A sample of the cannabis extract was analyzed for content of cannabinoids. The cannabis extract was then combined with albumin solution having 20% ethanol at 10 mg/ml (BSA) and incubated for 2 hours at room temperature.

BSA [6] = biological target: T2, BSA; assay: Cannabis extract combined with albumin solution, cannabinoids adsorbed to BSA (Example 2a); assay type: binding, bovine; conditions: albumin solution 10 mg/ml (BSA) with 20% ethanol, 2 hours at room temperature
Experimental: as §3, §4, §5

albumin (BSA) = albumin (BSA) (Bos taurus, UniProt P02769); assay: Ethanolic cannabinoid solution mixed with aqueous albumin, protein-bound cannabinoid quantified (Example 2b); assay type: binding, bovine; design: protein-bound cannabinoid quantified, Vapor: unit not given beside the values; conditions: 100 microliters ethanolic solution + 500 microliters 5 mg/ml BSA, 30° C., 12 hours, non-adsorbed cannabinoids separated
Experimental: 100 microliters of ethanolic cannabinoid solution from cannabis vapor and cannabis smoke were each mixed with 500 microliters of aqueous albumin solution that had been prepared at a concentration of 5 mg albumin (BSA)/ml. The aqueous albumin solution combined with the ethanolic cannabinoid solution was incubated at 30° C. for 12 hours in open tubes. After 12 hours, the tubes were mixed and centrifuged, and non-adsorbed cannabinoids were separated from the solution. Concentrated protein-bound cannabinoid was dried and quantified as described below.

[7] = 3 g high THC strain; 200 ml ethanol concentrated to about 3 ml
[8] = strain of cannabis high in CBD and THC

T2 sequence (P02769 25-607): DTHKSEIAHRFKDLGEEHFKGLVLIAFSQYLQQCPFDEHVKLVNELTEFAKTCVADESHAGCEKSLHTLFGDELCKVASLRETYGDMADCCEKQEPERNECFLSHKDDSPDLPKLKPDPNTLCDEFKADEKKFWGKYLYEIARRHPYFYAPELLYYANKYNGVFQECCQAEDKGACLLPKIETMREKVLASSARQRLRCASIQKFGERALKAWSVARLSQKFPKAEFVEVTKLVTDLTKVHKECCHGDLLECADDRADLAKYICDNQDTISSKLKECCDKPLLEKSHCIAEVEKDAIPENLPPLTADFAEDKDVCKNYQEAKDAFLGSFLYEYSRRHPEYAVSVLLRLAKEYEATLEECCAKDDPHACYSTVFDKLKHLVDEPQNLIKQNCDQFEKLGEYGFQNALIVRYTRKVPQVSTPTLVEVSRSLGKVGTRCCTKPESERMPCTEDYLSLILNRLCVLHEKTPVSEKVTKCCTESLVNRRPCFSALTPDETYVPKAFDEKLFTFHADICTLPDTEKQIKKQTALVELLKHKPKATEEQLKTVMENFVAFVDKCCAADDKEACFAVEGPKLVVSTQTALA
Sequence of albumin (BSA) (P02769 25-607): as above
T1 sequence (P02769 25-607): as above
T4 sequence (P02768 25-609): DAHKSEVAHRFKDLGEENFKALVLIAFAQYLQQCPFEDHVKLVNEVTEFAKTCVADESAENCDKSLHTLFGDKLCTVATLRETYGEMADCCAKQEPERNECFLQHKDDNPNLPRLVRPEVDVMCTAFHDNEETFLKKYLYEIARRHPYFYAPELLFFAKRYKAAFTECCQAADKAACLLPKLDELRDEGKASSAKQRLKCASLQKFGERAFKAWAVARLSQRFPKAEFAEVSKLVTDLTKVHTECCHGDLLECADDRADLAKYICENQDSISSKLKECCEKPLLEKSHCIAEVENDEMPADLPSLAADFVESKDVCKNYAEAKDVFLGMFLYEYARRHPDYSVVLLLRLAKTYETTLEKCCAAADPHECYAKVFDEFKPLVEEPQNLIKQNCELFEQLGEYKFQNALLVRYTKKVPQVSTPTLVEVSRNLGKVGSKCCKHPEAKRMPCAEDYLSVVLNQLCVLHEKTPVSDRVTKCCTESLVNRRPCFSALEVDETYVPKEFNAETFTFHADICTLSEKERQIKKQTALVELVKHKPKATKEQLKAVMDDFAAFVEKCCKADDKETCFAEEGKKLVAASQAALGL

SMILES | active cannabinoids found by HPLC in BSA aqueous solution after cannabis smoke was introduced [1] | relative concentration of cannabinoids (relative to total cannabinoid content), Smoke passed through BSA/water/ethanol (BSA [2]; [8]) | relative concentration of cannabinoids (relative to total cannabinoid content), Vapor passed through BSA/water/ethanol (BSA [2]; [8]) | relative concentration of cannabinoids (relative to total cannabinoid content), Smoke passed through BSA/water/ethanol (BSA [2]; strain of cannabis high in THC) | relative concentration of cannabinoids (relative to total cannabinoid content), Smoke passed through ethanol [3, 8] | relative concentration of cannabinoids (relative to total cannabinoid content), Vapor passed through ethanol [3, 8] | relative concentration of cannabinoids (relative to total cannabinoid content), Smoke passed through ethanol ([3]; strain of cannabis high in THC) | relative concentration of cannabinoids (relative to total cannabinoid content), Vapor passed through ethanol ([3]; strain of cannabis high in THC) | percentage of each cannabinoid relative to total cannabinoids adsorbed to protein, Bovine γ-globulin (bovine γ-globulin) [percentage] | percentage of each cannabinoid relative to total cannabinoids adsorbed to protein, Ovalbumin (ovalbumin (hen)) [percentage] | percentage of each cannabinoid relative to total cannabinoids adsorbed to protein, Rice recombinant HSA [4] [percentage] | percentage of each cannabinoid relative to total cannabinoids, Extract [5] [percentage] | percentage of each cannabinoid relative to total cannabinoids adsorbed to protein, Adsorbed to BSA after extract combined with BSA solution (BSA [6]) [percentage] | protein-bound cannabinoid quantified, Smoke (albumin (BSA)) | protein-bound cannabinoid quantified, Vapor (albumin (BSA)) | amount of cannabinoids dissolved in ethanol, Smoke [7] [micrograms/ml] | amount of cannabinoids dissolved in ethanol, Vapor [7] [micrograms/ml]
CCCCCc1cc(O)c2c(c1)OC(C)(C)c1ccc(C)cc1-2 [CBN, cannabinol] | dissolved in the solution | 0.0 percent (weight/weight) | 0.0 percent (weight/weight) | 0.0 percent (weight/weight) | 1.6 percent (weight/weight) | 0.0 percent (weight/weight) | 1.7 percent (weight/weight) | 1.6 percent (weight/weight) | 0 | 0 | 0 | 2 | 2 | 6.5 | 4.855 | 276.856 | 135.5254
CCCCCc1cc2c(c(O)c1C(=O)O)[C@@H]1C=C(C)CC[C@H]1C(C)(C)O2 [THCA, tetrahydrocannabinoic acid] | dissolved in the solution | 5.3 percent (weight/weight) | 0.0 percent (weight/weight) | 9.3 percent (weight/weight) | 0.7 percent (weight/weight) | 0.3 percent (weight/weight) | 0.9 percent (weight/weight) | 1.1 percent (weight/weight) | 100 | 0 | 0 | 22 | 29 | 2.16 | 4.26 | 83.765 | 72.8432
